According to PubChem BioAssay (NCI):
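Each compound was tested at five concentrations against cells in 96-well plates for 48 hours. The concentration for 50% growth inhibition is given as GI50. TGI is the concentration that stops growth completely.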

Experiments:
Assay in all cases: NCI tumour cell line growth inhibition, 48 h
[1] = test system: ACHN renal
[2] = test system: T-47D breast
[3] = test system: COLO 205 colon
[4] = test system: NCI-H23 lung
[5] = test system: SK-MEL-5 melanoma
[6] = test system: MOLT-4 leukemia
[7] = test system: UACC-62 melanoma
[8] = test system: HL-60(TB) leukemia
[9] = test system: KM12 colon
[10] = test system: NCI-H522 lung

Row | Structure (SMILES) | GI50 [1] [µM] | TGI [1] [µM] | GI50 [2] [µM] | TGI [2] [µM] | GI50 [3] [µM] | TGI [3] [µM] | GI50 [4] [µM] | TGI [4] [µM] | GI50 [5] [µM] | TGI [5] [µM] | GI50 [6] [µM] | TGI [6] [µM] | GI50 [7] [µM] | TGI [7] [µM] | GI50 [8] [µM] | TGI [8] [µM] | GI50 [9] [µM] | TGI [9] [µM] | GI50 [10] [µM] | TGI [10] [µM]
1 | COc1cc(/C=C/c2cc(/C=C/c3ccc(O)c(OC)c3)n(C(=O)Nc3ccc(Cl)cc3)n2)ccc1O | 0.52 | 11.4 | 1.25 | 4.17 | 1.95 | 3.43 | 0.494 | 2.36 | 0.306 | 1.25 | 0.374 | 3.47 | 0.551 | 2.24 | 0.292 | 0.982 | 0.354 | 1.84 | 0.215 | 0.802
2 | Cc1cc(Cl)ccc1Nc1nc(C(F)(F)F)ccc1C(=O)N/N=C/c1ccccc1Cl | 1.53 | 6.86 | 0.824 | 4.63 | 0.727 | 2.1 | 0.775 | 4.89 | 1.39 | 3.51 | 1.29 | > 100 | 1.43 | 5.36 | 1.12 |  | 0.902 | 8.14 | 1.48 | 6.77
3 | CN(C)c1ccc(/C=c2/c3ccccc3n3c2c2cc(F)ccc2[n+]3C)cc1 | 34.6 | > 100 | 3.42 | 16.7 | 2.15 | 7.37 | 14.1 | 30.9 | 2.35 | 6.06 | 8.63 | 27.5 |  | 6.12 | 0.954 | > 100 | 4.28 | 19.4 | 4.57 | > 41.1
4 | CC1=C[C@H]2C[C@H](C)[C@H]3CC[C@H](C)[C@]4(C1)C(=O)C(O)=C(C)C(=O)[C@@]324 | 34.2 | > 100 | 19.1 | > 100 | 19 | 48.9 | 11 | 29.7 | 13.5 | 30.8 | 16.3 | 37.4 | 22 | 80.2 | 15.7 | 33.1 | 29.4 | > 100 | 19.8 | 83.4
5 | COc1cccc(/C(C)=N/NC(=O)CSc2nc3ccccc3c(=O)n2CCc2ccc(S(N)(=O)=O)cc2)c1 | 3.19 | 15.9 | 6.44 | 29.3 | 4.13 | 21.1 | 2.86 | 8.47 | 2.03 | 4.24 | 6.5 | 40.2 | 8.32 | 33.5 | > 100 | > 100 | 2.8 | 7.67 | 2.66 | 9.65
6 | COc1cc(C2C3=C(COC3=O)N(CCO)c3cc4c(cc32)OCO4)cc(OC)c1O (stereo unspecified) | > 13.5 | > 50 | 1.97 | > 50 | 1.48 | 4.07 | 1.84 | > 38 | 0.832 | 3.42 | 2.15 | > 24.9 |  | > 50 | 1.32 | 3.26 | 1.35 | > 20.6 | 0.0267 | 0.289
7 | Cc1cc(Nc2cc(N3CCN(C)CC3)nc(Sc3ccc(NC(=O)C4CC4)cc3)n2)n[nH]1 | > 10 | > 10 | > 10 | > 10 | 0.0456 | 7.32 | 3.19 | > 10 | 3.19 | > 10 | 4.21 | > 10 | 1.53 | > 10 | 0.283 | > 10 | 0.0461 | > 10 | 4.16 | > 10
8 | O=C(NCc1ccco1)c1cccc(NC2=C(Cl)C(=O)N(Cc3ccccc3)C2=O)c1 | 9.18 | 42.3 | 23.1 | > 100 | 16.2 | 49.9 | 14.7 | 33.3 | 5.26 | 23.3 | 5.19 | > 100 | 12.6 | 33.3 | 5.52 | 22.3 | 6.49 | 24.5 | 2.84 | 20.8
9 | CCOC(=O)c1cnn2c3ccccc3n(S(=O)(=O)c3ccc(OC)cc3)c12 | 0.811 | > 100 | 13.8 | > 100 | 0.289 | 1.08 | 0.393 | > 100 | 0.319 | 2.27 | 0.389 | > 100 | 0.574 | > 100 | 0.226 | 0.695 | 0.196 | 21.9 | 0.338 | 38.8
10 | O=C(Nc1cc(Oc2cc(F)c(NC(=O)C3(C(=O)Nc4ccc(F)cc4)CC3)cc2F)ccn1)C1CC1 | 2.87 | > 100 | 2.33 | 6.61 | 1.4 | 3.27 | 1.31 | 6.02 | 1.52 | 3.47 | 2.18 | 7.1 | 1.19 | 5.6 | 2.18 | 5.6 |  | 7.42 | 2.18 | 5.84
11 | Nc1ccccc1C#C/C=C\C#Cc1c(F)c(F)c(F)c(F)c1F | 14.5 | 30.7 | 23 | 61.6 | 18.9 | 37.4 | 14.7 | 32.4 | 20 | 45 | 1.76 | 34.8 | 12.5 | 26 | 28.8 | 57.1 | 16.2 | 37.7 | 11.9 | 31.3
12 | C[C@]12CCNC(=O)C=C1CC[C@@H]1C2CC[C@@]2(C)C1CC[C@@H]2OC(=O)COc1ccc(N(CCCl)CCCl)cc1 (stereo partly specified) |  | 11.2 |  | 9.03 |  | 23.9 |  | 20.2 |  | 24.6 |  | > 22.2 |  | 6.41 |  | 7.4 |  | 24.4 |  | 3.08
